Measurements reported in patent publication US20020182694A1, “Novel gene and polypeptide which opposes the Fas pathway” (priority 2001, published 2002).

Experiments:
HeLa cells [1] = assay: Apoptotic index (DAPI staining) of HeLa cells treated with anti-Fas antibody; format: cell-based, human
Protocol: To generate HeLa cells that over-express Nrf2, the human Nrf2 cDNA (Moi et al. 1994) was cloned into the retrovirus expression vector pBABEpuro (Morgenstern and Land 1990) by standard methods. The plasmid was transiently transfected into […] and virus was collected at 36, 48, 60 and 72 hours post transfection. At each time point, freshly collected virus stock was filtered through a […], mixed with […] polybrene (Sigma/Aldrich) and applied to HeLa cells. 24 hours after the last addition of the virus, the cells were subjected to selection in […] Puromycin (Sigma/Aldrich). The pool of Puromycin resistant colonies was expanded. […] Apoptotic index was calculated as the ratio of number of dead cells (containing condensed and/or fragmented chromosomes) to the total number of cells. Average apoptotic index calculated from ten fields from duplicate wells is presented.
For bioassays, HeLa cells, at 8.3×10^4 cells/well were plated in 12 wells plates. […] 20 hours later the apoptotic index of treated cells was determined as described for the Nrf2 bioassays.
HeLa cells, 1.6×10^5 cells/well were plated in 6 wells plates. […] The number of viable, trypan blue (Gibco/BRL) excluding cells that remained attached to the plate following rinsing with PBS was counted 17 hours post treatment. Alternatively, the apoptotic index of treated cells was determined as described for the Nrf2 bioassays.

HeLa cells [2] = assay: Fas induced killing of HeLa cells treated with pharmacological agents, count of viable trypan blue excluding cells; format: cell-based, human; details: for effect on Fas induced PCD of HeLa cells, in words (viable cell count): anti-Fas antibody treated HeLa cells, NAC: 50 ng/ml anti-Fas, 5 days, FIG. 6, 8E, 8G, 8H
Protocol: HeLa cells, 1.6×10^5 cells/well were plated in 6 wells plates. 20-24 hours later cells were treated with various concentrations of sulfinpyrazone (Sigma/Aldrich) in 1% DMSO for 15 minutes prior to the addition of 200 ng/ml anti-Fas antibody (clone CH-11, Kamiya Biomedical Company). The number of viable, trypan blue (Gibco/BRL) excluding cells that remained attached to the plate following rinsing with PBS was counted 17 hours post treatment. […]

[3] = biological target: Fas/CD95/Apo-1 on HeLa cells (human) (UniProt P25445); assay: cell-based or functional assay
UniProt P25445, sequence (P25445 26-335): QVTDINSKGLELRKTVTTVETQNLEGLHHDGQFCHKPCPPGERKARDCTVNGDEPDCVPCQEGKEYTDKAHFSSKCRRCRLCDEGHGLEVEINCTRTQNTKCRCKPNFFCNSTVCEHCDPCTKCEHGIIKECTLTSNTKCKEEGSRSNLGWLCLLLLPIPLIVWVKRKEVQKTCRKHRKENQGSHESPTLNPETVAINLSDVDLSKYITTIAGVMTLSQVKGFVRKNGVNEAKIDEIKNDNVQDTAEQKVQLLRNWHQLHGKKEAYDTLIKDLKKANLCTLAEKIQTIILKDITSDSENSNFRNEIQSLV

O=c1oc2ccccc2c(O)c1Cc1c(O)c2ccccc2oc1=O [Dicumarol]
killing (apoptotic index) in cells treated with anti-Fas antibody and Dicumarol (HeLa cells [1]; 100 uM Dicumarol, 200 ng/ml anti-Fas antibody, vehicle (0 uM) approximately 25%, FIG. 8F): approximately 100% | effect on Fas induced PCD of HeLa cells, in words (apoptotic index) (HeLa cells [1]; anti-Fas antibody treated HeLa cells, FIG. 8C, 8D, 8F legends): sensitizes | fold more sensitive to Fas induced killing compared to cells treated with vehicle, measured by the number of viable cells (HeLa cells [2]; 100 uM Dicumarol, 200 ng/ml anti-Fas antibody, counted 17 hours post treatment, FIG. 8E): 2.8 fold | effect on Fas induced PCD of HeLa cells, in words (viable cell count) (HeLa cells [2]): sensitizes

Anti-Fas antibody (clone CH-11, Kamiya Biomedical Company, catalog number MC-060)
apoptotic index (DAPI staining), HeLa cells infected with vector alone (Control-1) [3]: 89% | apoptotic index (DAPI staining), HeLa cells infected with vector alone (Control-2) [3]: 87% | apoptotic index (DAPI staining), HeLa cells with vehicle [3]: 25% | apoptotic index (DAPI staining), HeLa cells with vehicle (0 uM Dicumarol) [3]: 25%

O=C1C(CC[S+]([O-])c2ccccc2)C(=O)N(c2ccccc2)N1c1ccccc1 (stereo not shown) [sulfinpyrazone]
sensitization to Fas induced killing compared to treatment with vehicle alone (HeLa cells [2]; 2 mM sulfinpyrazone, 200 ng/ml anti-Fas antibody, counted 17 hours post treatment, FIG. 8G): approximately 4 fold

NCCNS(=O)(=O)c1ccc(Cl)c2ccncc12 [CKI-7, N-(2-aminoethyl)-5-chloroisoquinoline-8-sulfonamide]
fold more sensitive to FAS induced PCD than the untreated cells (HeLa cells [2]; CKI-7 in 1% DMSO added an hour before 200 ng/ml anti-FAS antibody, counted 17 hours post treatment, FIG. 6): 3.9 fold | effect on Fas induced PCD of HeLa cells, in words (viable cell count) (HeLa cells [2]): sensitizes

CC(=O)N[C@@H](CS)C(=O)O [NAC, N-acetyl Cysteine]
effect on Fas induced PCD of HeLa cells, in words (viable cell count) (HeLa cells [2]): strongly protects | effect on Fas induced PCD of HeLa cells, in words (viable cell count) (HeLa cells [2]; listed as N-acetyl cysteine): protects
